Patent US9458179B2, “Quinuclidine, 1-azabicyclo[2.2.1]heptane, 1-azabicyclo [3.2.1]octane, and 1-azabicyclo[3.2.2]nonane compounds as alpha-7 nicotinic acetylcholine receptor ligands” (BRISTOL-MYERS SQUIBB COMPANY, priority 2012, dated 2016)
Where two headings read alike, the source gives them in different places.

Target: T1, α-7 nicotinic ACh receptor ion channel (Rattus norvegicus, UniProt Q05941)
T1 construct: expressed in transfected cells
Assay: Ca2+-sensitive fluorescence-based FLIPR assay of α7 nicotinic receptor channel function (agonist activity)
Assay type: cell-based
Conditions: HEK 293 cells, Ca2+ flux
Protocol: II) A Ca^2+-Sensitive, Fluorescence-Based Assay α-7 for Nicotinic Acetylcholine Receptor Channel Function in Mammalian Cells (“FLIPR”).
Lead compounds are evaluated for agonist activity at α-7, α3β4, α4αβ2, and α1β1δ1ε sub-types of nicotinic ACh receptor ion channels expressed in mammalian HEK 293 cells. Agonist potency and efficacy values are determined from kinetic fluorescence Ca^2+ influx measurements made using a 384 well FLIPR (Fluorescence Image Plate Reader). […] In this assay, channel expressing HEK cell lines seeded in 384 well assay plates are loaded with a membrane permeant fluorescent Ca^2+ indicator dye, whose 510 nm green emission signal increases in response to elevation of intracellular Ca^2+ concentration. The basal fluorescence from the cells is monitored in real time, followed by the acute addition of test compounds.
Reagents: The acetomethoxy (AM) ester of the Ca^2+ indicator dye Fluo-4 was obtained from InVitrogen, (Carlsbad, Calif.). Acetylcholine and all buffer constituents were purchased from Sigma Chemical Company, St. Louis, Mo. G418 and Minimal Essential Medium were purchased from InVitrogen Life Technologies, Carlsbad, Calif. Fetal bovine serum was purchased from (InVitrogen, Carlsbad, Calif.).
HEK-293 cells were grown in Minimal Essential Medium containing 10% (v/v) fetal bovine serum at 37° C. in a 5% CO2 incubator. HEK-293 cells stably expressing the ion channels were grown in the same medium with the addition of 500 μg/ml G418.
HEK-293 cells expressing the ion channels of interest were plated in 384 well, black-walled, clear-bottomed, poly-D-lysine coated plates at a density of ˜20,000 cells/well in 20 μl of Minimal Essential Medium containing 10% (v/v) fetal bovine serum and incubated for 2 days at 29° C. in a 5% CO2 incubator. Prior to assay, cells were loaded with the Fluo-4 AM ester. […] Dye loading was allowed to proceed for 90 minutes at room temperature at which time the dye loading solution was removed and replaced with 40 μl/well of Hanks buffer. Cells loaded with dye were loaded onto a FLIPR384 (Molecular Devices, Sunnyvale, Calif.). […] Emission was filtered using a 540+/−30 nm bandpass filter. For evaluation of the effects of test compounds using the Ca^2+ flux assay, compounds to be tested were provided in assay ready plates. For nicotinic receptor ion channel expressing cells, the assay was initiated by the addition of 20 μl/well of Hanks buffer containing test compounds. For all assays, data were collected at 1 Hz for 10 seconds (baseline), at which time the compound containing stimulus buffers are added, and further measurements collected at 0.33 Hz for 3 min.
The statistical robustness of the nicotinic receptor Ca^2+ flux assays is determined from blanks and totals wells. […] The raw fluorescence units data files generated on the FLIPR plate reader are automatically exported and processed by in-house data analysis tools. The reduced percent activation data for each concentration of test compound are fit using MathIQ fitting engine (ID Business Solutions Limited, Surrey, UK). Data were analyzed by fitting maximum amplitudes of change in fluorescence, for Ca^2+ flux for a given condition of test compound. […] Test compound efficacy values (Ymax values) are expressed relative to a maximal response to acetylcholine in the total wells.

[1] = FLIPR α7-HI (EC50, nM), Table 1, activity class
[2] = FLIPR α7-HI (EC50, nM), Table 3, activity class
[3] = FLIPR α7-HI (EC50, nM), Table 3

T1 sequence (Q05941 23-502): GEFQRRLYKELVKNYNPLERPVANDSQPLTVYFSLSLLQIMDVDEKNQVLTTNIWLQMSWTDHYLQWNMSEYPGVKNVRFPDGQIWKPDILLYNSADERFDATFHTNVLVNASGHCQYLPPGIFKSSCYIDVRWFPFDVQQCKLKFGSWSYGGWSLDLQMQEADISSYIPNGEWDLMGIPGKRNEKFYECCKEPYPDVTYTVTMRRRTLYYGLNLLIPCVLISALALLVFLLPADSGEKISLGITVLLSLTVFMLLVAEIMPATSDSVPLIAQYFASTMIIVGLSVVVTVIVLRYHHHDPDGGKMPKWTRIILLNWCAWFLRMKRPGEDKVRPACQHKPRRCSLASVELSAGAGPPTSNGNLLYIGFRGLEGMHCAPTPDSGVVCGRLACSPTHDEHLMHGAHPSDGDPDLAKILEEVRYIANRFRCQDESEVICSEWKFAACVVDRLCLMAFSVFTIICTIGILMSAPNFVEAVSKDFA

Compound | EC50 [1] [nM] | also measured
c1ccc2sc(NC3=NCC4(CN5CCC4CC5)N3)nc2c1 (stereo not shown) [Example 11] | < 100 | 
FC(F)(F)c1ccc2c(NC3=NCC4(CN5CCC4CC5)N3)n[nH]c2c1 (stereo not shown) [Example 51] | > 1e+06 | 
CN1C(Nc2nc3cc(Cl)ccc3o2)=NCC12CN1CCC2CC1 (stereo not shown) [Example 58] | 100 to 1000 | 
Clc1cnc(NC2=NCC3(CN4CCC3CC4)N2)nc1 (stereo not shown) [Example 17] | 100 to 1000 | EC50 (FLIPR α7-HI (EC50, nM)): 286 nM
CN1C(Nc2nc3ccccc3o2)=NCC12CN1CCC2CC1 (stereo not shown) [Example 60] | 100 to 1000 | 
c1csc(NC2=NCC3(CN4CCC3CC4)N2)n1 (stereo not shown) [Example 9] | 1000 to 100000 | EC50 (FLIPR α7-HI (EC50, nM)): 1060 nM
Clc1cccc2nc(NC3=NCC4(CN5CCC4CC5)N3)sc12 (stereo not shown) [Example 53] | 100 to 1000 | 
CN1C(Nc2ccc3ccccc3n2)=NCC12CN1CCC2CC1 (stereo not shown) [Example 40] | 100 to 1000 | EC50 (FLIPR α7-HI (EC50, nM)): 942 nM
Brc1ccc2nc(NC3=NCCC4(CN5CCC4CC5)O3)sc2n1 (stereo not shown) [Example 87] |  | EC50 [2]: 1000 to 100000 nM
CCN1C(Nc2nc3ccc(OC)cc3s2)=NCC12CN1CCC2CC1 (stereo not shown) [Example 3] | 100 to 1000 | 
c1ccc2oc(NC3=NCC4(CN5CCC4CC5)N3)nc2c1 (stereo not shown) [Example 59] | < 100 | 
CN1C(Nc2nc3ccc(F)nc3s2)=NCC12CN1CCC2CC1 (stereo not shown) [Example 45] | 1000 to 100000 | 
Clc1ccc(NC2=NCC3(CN4CCC3CC4)N2)nn1 (stereo not shown) [Example 25] | 1000 to 100000 | 
COc1ccc2nc(NC3=NCCC4(CN5CCC4CC5)O3)sc2c1 (stereo not shown) [Example 70, N-(6-Methoxybenzo[d]thiazol-2-yl)-4,5-dihydro-1′-azaspiro[[1,3]oxazine-6,3′-bicyclo[2.2.2]octan]-2-amine] |  | EC50 [2]: 100 to 1000 nM
COc1cc(NC2=NCCC3(CN4CCC3CC4)O2)ncn1 (stereo not shown) [Example 80] |  | EC50 [3]: 3650 nM; EC50 [2]: 1000 to 100000 nM
CN1C(Nc2nc3ccccc3s2)=NCC12CN1CCC2CC1 (stereo not shown) [Example 12] | 100 to 1000 | 

Compound | EC50 [1] [nM] | also measured
c1ccc2[nH]c(NC3=NCCC4(CN5CCC4CC5)O3)nc2c1 (stereo not shown) [Example 77] |  | EC50 (Table 3, activity class, read-out: FLIPR α7-HI (EC50)): > 1e+06 nM; EC50 (Table 3, read-out: FLIPR α7-HI (EC50)): > 100000 nM
c1ccc2c(NC3=NCCC4(CN5CCC4CC5)O3)ncnc2c1 (stereo not shown) [Example 82] |  | EC50 [2]: 100 to 1000 nM
CCN1C(Nc2ncc(-c3ccccc3)s2)=NCC12CN1CCC2CC1 (stereo not shown) [Example 6] | 1000 to 100000 | 
c1csc(NC2=NCCC3(CN4CCC3CC4)O2)n1 (stereo not shown) [Example 73] |  | EC50 [3]: 4530 nM; EC50 [2]: 1000 to 100000 nM
CN1C(Nc2ccc(Cl)cn2)=NCC12CN1CCC2CC1 (stereo not shown) [Example 14] | 1000 to 100000 | 
CN1C(Nc2nc3ccc(Cl)nc3s2)=NCC12CN1CCC2CC1 (stereo not shown) [Example 29] | 100 to 1000 | 
Brc1ccc2nc(NC3=NCC4(CN5CCC4CC5)N3)sc2n1 (stereo not shown) [Example 49] | 100 to 1000 | 
CN1C(Nc2nc3ccc(Br)nc3s2)=NCC12CN1CCC2CC1 (stereo not shown) [Example 50] | 1000 to 100000 | 
c1ccc(-c2cnc(NC3=NC4(CO3)CN3CCC4CC3)s2)cc1 (stereo not shown) [Example 68, N-(5-Phenylthiazol-2-yl)-5H-1′-azaspiro[oxazole-4,3′-bicyclo[2.2.2]octan]-2-amine] |  | EC50 (FLIPR α7-HI (EC50, nM), Table 2, activity class column): 100 to 1000 nM
Cc1ccc2nc(NC3=NCC4(CN5CCC4CC5)N3)oc2c1 (stereo not shown) [Example 8, N-(6-Methyl-1,3-benzoxazol-2-yl)-1′,5′-dihydrospiro[4-azabicyclo[2.2.2]octane-2,4′-imidazol]-2′-amine] | < 100 | 
Clc1ccc2nc(NC3=NCC4(CN5CCC4CC5)N3)sc2n1 (single isomer, unassigned) [Example 28a] | < 100 | 
Clc1cnc(NC2=NCC3(CN4CCC3CC4)N2)cn1 (stereo not shown) [Example 7, N-(5-Chloro-2-pyrazinyl)-1′,5′-dihydrospiro[4-azabicyclo[2.2.2]octane-2,4′-imidazol]-2′-amine] | 100 to 1000 | 
c1cnc2sc(NC3=NCC4(CN5CCC4CC5)N3)nc2c1 (stereo not shown) [Example 56] | < 100 | 
Clc1ccc2oc(NC3=NCC4(CN5CCC4CC5)N3)nc2c1 (stereo not shown) [Example 57] | 100 to 1000 | 
Clc1cnc(NC2=NCCC3(CN4CCC3CC4)O2)cn1 (stereo not shown) [Example 72, N-(5-Chloropyrazin-2-yl)-4,5-dihydro-1′-azaspiro[[1,3]oxazine-6,3′-bicyclo[2.2.2]octan]-2-amine] |  | EC50 [2]: 1000 to 100000 nM
